This note sets out measurements from US20230382940A1, “ANTIVIRAL COMPOUNDS AND METHODS OF MAKING AND USING THE SAME” (Gilead Sciences, Inc., priority 2022, published 2023).

For assay [1], the system named is Respiratory syncytial virus recombinant with luciferase (RSV-Luc5). The assay can be described thus: NHBE RSV-Luc5 384-well assay (EC50 RSVFLUC NHBE-384 v2), Example W. The format is cell-based. To be noted: human respiratory syncytial virus, 72 h, read-out: EC50 RSV FLUC NHBE 384 V2 (per Ex. W). In a few lines: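 Primary NHBE cells (passage 2), 5,000/well, infected with RSV-Luc5 at MOI 1 alongside 10-point 1:3 compound dilutions; 3 days at 37° C. Replication read by One-Glo luminescence, normalized to remdesivir (0%) and DMSO (100%); EC50 = concentration reducing replication by 50%, from non-linear regression.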

The test system of assay [2] is Human Rhinovirus 14 (HRV14). The assay can be described thus: H1-HeLa HRV-CTG 384-well assay, HRV14, Example X. The format is cell-based. To be noted: Rhinovirus B, 96 h; H1-HeLa cells, HRV14 MOI 1.0, 4 days, Celltiter-Glo; read-out: EC50 H1-HeLa_HRV 14_HRV-CTG 384-well Assay (per Ex. X). Put shortly: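 H1-HeLa cells (5,000/well, DMEM 2% FBS) infected with HRV1B, HRV14 or HRV16 at MOI 0.5, 1.0 and 0.25 respectively, with 10-point 1:3 compound dilutions; 4 days at 37 °C. Viability by CellTiter-Glo luminescence, normalized to rupintrivir and DMSO controls; EC50 by non-linear regression.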

Each structure is given as a SMILES string.

In the case of `N#C[C@]1(COC(=O)OC2CC3(CCC3)C2)O[C@@H](c2ccc3c(N)ncnn23)[C@H](O)[C@@H]1O` [Compound 36, ((2R,3S,4R,5S)-5-(4-aminopyrrolo[2,1-f][1,2,4]triazin-7-yl)-2-cyano-3,4-dihydroxytetrahydrofuran-2-yl)methyl spiro[3.3]heptan-2-yl carbonate], the EC50 in assay [1] amounted to 8.42 µM; in assay [2], 10.6 µM.

As to `CC1(C)CC(OC(=O)OC[C@@]2(C#N)O[C@@H](c3ccc4c(N)ncnn34)[C@H](O)[C@@H]2O)C1` [Compound 37, ((2R,3S,4R,5S)-5-(4-aminopyrrolo[2,1-f][1,2,4]triazin-7-yl)-2-cyano-3,4-dihydroxytetrahydrofuran-2-yl)methyl (3,3-dimethylcyclobutyl) carbonate], the EC50 in assay [1] came out at 7.44 µM; in assay [2], 20.5 µM.

With `COC[C@@H](C)OC(=O)OC[C@@]1(C#N)O[C@@H](c2ccc3c(N)ncnn23)[C@H](O)[C@@H]1O` [Compound 38, ((2R,3S,4R,5S)-5-(4-aminopyrrolo[2,1-f][1,2,4]triazin-7-yl)-2-cyano-3,4-dihydroxytetrahydrofuran-2-yl)methyl ((R)-1-methoxypropan-2-yl) carbonate], the values for the EC50 in assay [1] and in assay [2] were 7.61 µM and 24.4 µM, respectively.

As to `N#C[C@]1(COC(=O)O[C@@H]2C[C@@H]3C[C@@H]3C2)O[C@@H](c2ccc3c(N)ncnn23)[C@H](O)[C@@H]1O` [Compound 39, ((2R,3S,4R,5S)-5-(4-aminopyrrolo[2,1-f][1,2,4]triazin-7-yl)-2-cyano-3,4-dihydroxytetrahydrofuran-2-yl)methyl ((1R,3r,5S)-bicyclo[3.1.0]hexan-3-yl) carbonate], the EC50 in assay [1] was determined as 7.84 µM; in assay [2], 11.7 µM.

Take `C[C@H]1CC[C@H](OC(=O)OC[C@@]2(C#N)O[C@@H](c3ccc4c(N)ncnn34)[C@H](O)[C@@H]2O)CC1` [Compound 40, ((2R,3S,4R,5S)-5-(4-aminopyrrolo[2,1-f][1,2,4]triazin-7-yl)-2-cyano-3,4-dihydroxytetrahydrofuran-2-yl)methyl ((1r,4R)-4-methylcyclohexyl) carbonate]: the values for the concentration for a half-maximal effect (EC50) in assay [1] and in assay [2] were 7.42 µM and 15.4 µM, respectively.
